The test system of one assay is HLA-A*24. The assay is described as follows: MHC binding assay by UV-ligand exchange and beta2m ELISA (HLA-A*24). Further details: species or system human. Particulars: peptide exchange yield, binding to HLA-A*24; UV-ligand exchange, beta2m ELISA. The source says:
Candidate peptides for T cell based therapies according to the present invention were further tested for their MHC binding capacity (affinity). The individual peptide-MHC complexes were produced by UV-ligand exchange, where a UV-sensitive peptide is cleaved upon UV-irradiation, and exchanged with the peptide of interest as analyzed. Only peptide candidates that can effectively bind and stabilize the peptide-receptive MHC molecules prevent dissociation of the MHC complexes. To determine the yield of the exchange reaction, an ELISA was performed based on the detection of the light chain (β2m) of stabilized MHC complexes. The assay was performed as generally described in Rodenko et al. (Rodenko et al., 2006).
96 well MAXISorp plates (NUNC) were coated over night with 2 ug/ml streptavidin in PBS at room temperature, washed 4× and blocked for 1 h at 37° C. in 2% BSA containing blocking buffer. Refolded HLA-A*02:01/MLA-001 monomers served as standards, covering the range of 15-500 ng/ml. Peptide-MHC monomers of the UV-exchange reaction were diluted 100 fold in blocking buffer. Samples were incubated for 1 h at 37° C., washed four times, incubated with 2 ug/ml HRP conjugated anti-β2m for 1 h at 37° C., washed again and detected with TMB solution that is stopped with […]. Absorption was measured at 450 nm. Candidate peptides that show a high exchange yield (preferably higher than 50%, most preferred higher than 75%) are generally preferred for a generation and production of antibodies or fragments thereof, and/or T cell receptors or fragments thereof, as they show sufficient avidity to the MHC molecules and prevent dissociation of the MHC complexes.
With “217 (FFPPTRQMGLLF; listed as Homo sapiens) [compound 217]”, the Peptide exchange entry is “++++ (> = 75% = ++++)”.

As for “181 (LYLDIINLF; listed as Homo sapiens) [compound 181]”, the Peptide exchange result is listed as “++++ (> = 75% = ++++)”.

“280 (RYPDNLKHLYL; listed as Homo sapiens) [compound 280]”: the Peptide exchange result was “++++ (> = 75% = ++++)”.

On to “228 (KYTSWYVAL; listed as Homo sapiens) [compound 228]”, for which the Peptide exchange entry was “++++ (> = 75% = ++++)”.

Turning to “277 (VYQGHTALL; listed as Homo sapiens) [compound 277]”, the Peptide exchange result is recorded as “++++ (> = 75% = ++++)”.

Turning to “177 (VYPWLGALL; listed as Homo sapiens) [compound 177]”, the Peptide exchange entry is listed as “++++ (> = 75% = ++++)”.

As for “168 (KYQDILETI; listed as Homo sapiens) [compound 168]”, the Peptide exchange result is “++++ (> = 75% = ++++)”.

On to “195 (TYSVSFPMF; listed as Homo sapiens) [compound 195]”, for which the Peptide exchange entry was “++++ (> = 75% = ++++)”.

“276 (VYGFQWRHF; listed as Homo sapiens) [compound 276]”: the Peptide exchange result is listed as “++++ (> = 75% = ++++)”.

On to “274 (AYLHSHALI; listed as Homo sapiens) [compound 274]”, for which the Peptide exchange result was “++++ (> = 75% = ++++)”.

Consider “161 (IYLVSIPEL; listed as Homo sapiens) [compound 161]”, for which the Peptide exchange result was “++++ (> = 75% = ++++)”.

In the case of “289 (KYPVEWAKF; listed as Homo sapiens) [compound 289]”, the Peptide exchange result is given as “++++ (> = 75% = ++++)”.

As for “278 (RYISDQLFTNF; listed as Homo sapiens) [compound 278]”, the Peptide exchange entry was “++++ (> = 75% = ++++)”.

Regarding “187 (TYLRDQHFL; listed as Homo sapiens) [compound 187]”, the Peptide exchange result is given as “++++ (> = 75% = ++++)”.

For “193 (RFHPTPLLL; listed as Homo sapiens) [compound 193]”, the Peptide exchange result is “++++ (> = 75% = ++++)”.

For the substance “160 (VYTLDIPVL; listed as Homo sapiens) [compound 160]”, the Peptide exchange result was “++++ (> = 75% = ++++)”.

For the substance “202 (VYWDSAGAAHF; listed as Homo sapiens) [compound 202]”, the Peptide exchange result was “++++ (> = 75% = ++++)”.

Regarding “272 (QYLQDAYSF; listed as Homo sapiens) [compound 272]”, the Peptide exchange entry is “++++ (> = 75% = ++++)”.

As to “173 (IYSWILDHF; listed as Homo sapiens) [compound 173]”, the Peptide exchange entry was “++++ (> = 75% = ++++)”.

As for “186 (IFPQFLYQF; listed as Homo sapiens) [compound 186]”, the Peptide exchange entry is listed as “++++ (> = 75% = ++++)”.

Turning to “227 (IFLDYEAGTLSF; listed as Homo sapiens) [compound 227]”, the Peptide exchange entry was “++++ (> = 75% = ++++)”.

Take “175 (YYEVHKELF; listed as Homo sapiens) [compound 175]”: the Peptide exchange result is “++++ (> = 75% = ++++)”.

With “172 (TYTTVPRVAF; listed as Homo sapiens) [compound 172]”, the Peptide exchange result is listed as “++++ (> = 75% = ++++)”.

As to “282 (KFVDSTFYL; listed as Homo sapiens) [compound 282]”, the Peptide exchange entry is “++++ (> = 75% = ++++)”.

As for “184 (VFQNFPLLF; listed as Homo sapiens) [compound 184]”, the Peptide exchange result was “++++ (> = 75% = ++++)”.

With “211 (YYLEVGKTLI; listed as Homo sapiens) [compound 211]”, the Peptide exchange entry is “++++ (> = 75% = ++++)”.

“267 (KYMVYPQTF; listed as Homo sapiens) [compound 267]”: the Peptide exchange result is reported as “++++ (> = 75% = ++++)”.

As for “210 (IYTMIYRNL; listed as Homo sapiens) [compound 210]”, the Peptide exchange entry is on record as “++++ (> = 75% = ++++)”.

As to “192 (SYALLTYMI; listed as Homo sapiens) [compound 192]”, the Peptide exchange entry was “++++ (> = 75% = ++++)”.

Turning to “271 (LYHDIFSRL; listed as Homo sapiens) [compound 271]”, the Peptide exchange entry is given as “++++ (> = 75% = ++++)”.

On to “216 (QYSSVFKSL; listed as Homo sapiens) [compound 216]”, for which the Peptide exchange entry was “++++ (> = 75% = ++++)”.

Turning to “166 (YYVESGKLF; listed as Homo sapiens) [compound 166]”, the Peptide exchange result is reported as “++++ (> = 75% = ++++)”.

Regarding “179 (MYDSYWRQF; listed as Homo sapiens) [compound 179]”, the Peptide exchange result is given as “++++ (> = 75% = ++++)”.

A further assay concerns CD8+ T cells. The assay is described as follows: In vitro T-cell priming assay (aAPCs loaded with peptide/MHC and anti-CD28), pMHC multimer readout. It is filed as cell-based, human. Particulars: in vitro immunogenicity of HLA class I peptides; peptide specific pMHC multimer staining after three stimulation cycles. The source says: In order to obtain information regarding the immunogenicity of the TUMAPs of the present invention, the inventors performed investigations using an in vitro T-cell priming assay based on repeated stimulations of CD8+ T cells with artificial antigen presenting cells (aAPCs) loaded with peptide/MHC complexes and anti-CD28 antibody.
In order to perform in vitro stimulations by artificial antigen presenting cells loaded with peptide-MHC complex (pMHC) and anti-CD28 antibody, the inventors first isolated CD8+ T cells from fresh HLA-A*02 leukapheresis products via positive selection using CD8 microbeads (Miltenyi Biotec, Bergisch-Gladbach, Germany) of healthy donors obtained from the University clinics Mannheim, Germany, after informed consent.
PBMCs and isolated CD8+ lymphocytes were incubated in T-cell medium (TCM) until use consisting of RPMI-Glutamax (Invitrogen, Karlsruhe, Germany) supplemented with 10% heat inactivated human AB serum (PAN-Biotech, Aidenbach, Germany), 100 U/ml Penicillin/100 μg/ml Streptomycin (Cambrex, Cologne, Germany), 1 mM sodium pyruvate (CC Pro, Oberdorla, Germany), 20 μg/ml Gentamycin (Cambrex). 2.5 ng/ml IL7 (PromoCell, Heidelberg, Germany) and 10 U/ml IL-2 (Novartis Pharma, Nurnberg, Germany) were also added to the TCM at this step.
Generation of pMHC/anti-CD28 coated beads, T-cell stimulations and readout was performed in a highly defined in vitro system using four different pMHC molecules per stimulation condition and 8 different pMHC molecules per readout condition.
The purified co-stimulatory mouse IgG2a anti human CD28 Ab 9.3 (Jung et al., 1987) was chemically biotinylated using Sulfo-N-hydroxysuccinimidobiotin as recommended by the manufacturer (Perbio, Bonn, Germany). Beads used were 5.6 μm diameter streptavidin coated polystyrene particles (Bangs Laboratories, Illinois, USA).
pMHC used for positive and negative control stimulations were A*0201/MLA-001 (peptide […] (SEQ ID NO. 303) from modified Melan-A/MART-1) and A*0201/DDX5-001 ([…] from DDX5, SEQ ID NO. 304), respectively.
800.000 beads/200 μl were coated in 96-well plates in the presence of 4×12.5 ng different biotin-pMHC, washed and 600 ng biotin anti-CD28 were added subsequently in a volume of 200 μl. Stimulations were initiated in 96-well plates by co-incubating 1×10^6 CD8+ T cells with 2×10^5 washed coated beads in 200 μl TCM supplemented with 5 ng/ml IL-12 (PromoCell) for 3 days at 37° C. Half of the medium was then exchanged by fresh TCM supplemented with 80 U/ml IL-2 and incubating was continued for 4 days at 37° C. This stimulation cycle was performed for a total of three times. For the pMHC multimer readout using 8 different pMHC molecules per condition, a two-dimensional combinatorial coding approach was used as previously described (Andersen et al., 2012) with minor modifications encompassing coupling to 5 different fluorochromes. Finally, multimeric analyses were performed by staining the cells with Live/dead near IR dye (Invitrogen, Karlsruhe, Germany), CD8-FITC antibody clone SK1 (BD, Heidelberg, Germany) and fluorescent pMHC multimers. For analysis, a BD LSRII SORP cytometer equipped with appropriate lasers and filters was used. Peptide specific cells were calculated as percentage of total CD8+ cells. Evaluation of multimeric analysis was done using the FlowJo software (Tree Star, Oregon, USA). In vitro priming of specific multimer+CD8+ lymphocytes was detected by comparing to negative control stimulations.
As for “230 (KLQNIMMLL; listed as Homo sapiens) [compound 230]”, the “Wells positive [%]” value is on record as “++++ (> = 70% = ++++)”.

For the substance “90 (FLQDLEQRL; listed as Homo sapiens) [compound 90]”, the “Wells positive [%]” value is on record as “+ (<20% = +)”.

For the substance “26 (ALQEELTEL; listed as Homo sapiens) [compound 26]”, the “Wells positive [%]” value is reported as “+ (<20% = +)”.

On to “31 (TITETTVEV; listed as Homo sapiens) [compound 31]”, for which the “Wells positive [%]” value was “+ (<20% = +)”.

In the case of “18 (ILLDLTDNRL; listed as Homo sapiens) [compound 18]”, the “Wells positive [%]” value is on record as “+ (<20% = +)”.

For the substance “196 (LYIDRPLPYL; listed as Homo sapiens) [compound 196]”, the “Wells positive [%]” value is on record as “++++ (> = 70% = ++++)”.

Take “218 (YYKSTSSAF; listed as Homo sapiens) [compound 218]”: the “Wells positive [%]” value is listed as “+ (<20% = +)”.

Turning to “207 (AYVVFVSTL; listed as Homo sapiens) [compound 207]”, the “Wells positive [%]” value is on record as “+ (<20% = +)”.

On to “197 (EYSLFPGQVVI; listed as Homo sapiens) [compound 197]”, for which the “Wells positive [%]” value is “+ (<20% = +)”.

Regarding “29 (YLLDPSITL; listed as Homo sapiens) [compound 29]”, the “Wells positive [%]” value is listed as “+ (<20% = +)”.

Still in this assay, the particulars now being: positive wells; HLA-A*02 and HLA-A*24 peptides, healthy donors.
For “293 (FLVDGSWSI; listed as Homo sapiens) [compound 293]”, the “in vitro immunogenicity: Wells” value is “+ (<20% = +)”.

On to “301 (AYKPGALTF; listed as Homo sapiens) [compound 301]”, for which the “in vitro immunogenicity: Wells” value is on record as “+ (<20% = +)”.

Regarding “291 (KLDETGNSL; listed as Homo sapiens) [compound 291]”, the “in vitro immunogenicity: Wells” value is “+ (<20% = +)”.

Take “292 (GMMTAILGV; listed as Homo sapiens) [compound 292]”: the “in vitro immunogenicity: Wells” value is recorded as “+ (<20% = +)”.

The values are drawn from patent US10279022B2, “Peptides and combination of peptides for use in immunotherapy against various cancers” (immatics biotechnologies GmbH, priority 2015, dated 2019).
